Experimental data taken from US20120027905A1, “POLYENE ANTIFUNGAL COMPOSITIONS” (DSM IP ASSETS B.V., priority 2009, published 2012).

Tests used:
[1] = tested on: Botrytis cinerea (ATCC 12481); test: Antifungal efficacy of natamycin/thickener compositions on strawberries; assay type: in vivo; settings: after 6 days of storage at room temperature; 0.6% (w/v) thickening agent, 1000 μg/ml natamycin; B. cinerea
Protocol: In this experiment the antifungal activity of antimicrobial compositions comprising natamycin and the above-mentioned thickening agents was examined on strawberries. Compositions containing thickening agents and the antifungal agent natamycin were prepared as described in Example 1. The compositions comprised a final concentration of 0.6% (w/v) thickening agent and 1000 μg/ml natamycin. Fresh untreated strawberries from a local retailer in The Netherlands were artificially contaminated with 5 μl of a freshly prepared concentrated suspension of spores (10^6 spores/ml) of the mould species Botrytis cinerea (ATCC 12481). The mould spores were prepared using well-known methods. One hour after contamination the strawberries were dipped for one minute into the freshly prepared antimicrobial compositions, dripped off and dried to the air. The experiment was executed in ninefold. The strawberries were stored for 6 days under the conditions as described in Example 1 and were judged visually on mould development.

[2] = cited from earlier work
[3] = tested on: Penicillium italicum (ATCC 36041); test: Antifungal efficacy of natamycin/thickener compositions on wounded oranges (dip treatment); assay type: in vivo; settings: after 23 days of storage at room temperature; 0.2% (w/v) thickening agent, 1000 μg/ml natamycin; dipped one minute, P. italicum
Protocol: In a further experiment the antifungal activity of antimicrobial compositions comprising 1000 μg/ml natamycin and 0.2% (w/v) of the thickening agents described above was examined on oranges. The oranges were obtained from a local retailer in The Netherlands. The oranges were treated with spores of the mould Penicillium italicum (ATCC 36041). The mould spores were obtained using well-known methods. The oranges were injured according to the method described by Lapere de Bellaire and Dubois (see Plant disease 81:1378-1383, ([…])). Oranges were wounded three times using a cork borer followed by contamination per wound with 5 μl of a P. italicum spore suspension containing 10^6 spores/ml. After incubation for 1 hour at room temperature, the oranges were dipped for one minute into the freshly prepared antimicrobial compositions, dripped off and dried to the air. The experiment was executed in ninefold. The oranges were stored for 23 days under the conditions as described above and were judged visually on mould development.

[4] = tested on: most fungi; settings: for most fungi; cited from earlier work
[5] = tested on: Aspergillus ochraceus (ATCC 60532); test: Antifungal efficacy of natamycin/thickener compositions on fresh coffee beans; assay type: in vivo; settings: after 4 days of storage at room temperature; 0.6% (w/v) thickening agent, 1000 μg/ml natamycin; A. ochraceus
Protocol: In this experiment the antifungal activity of the antimicrobial compositions comprising natamycin and the above-mentioned thickening agents was examined on fresh coffee beans. Compositions containing thickening agents and the antifungal agent natamycin were prepared as described in Example 1. The compositions comprised a final concentration of 0.6% (w/v) thickening agent and 1000 μg/ml natamycin. Fresh untreated coffee beans from a local retailer in The Netherlands were artificially contaminated with 5 μl of a freshly prepared concentrated suspension of spores (10^6 spores/mil) of the mould Aspergillus ochraceus (ATCC 60532). The mould spores were prepared using well-known methods. One hour after contamination the coffee beans were dipped for one minute into the freshly prepared antimicrobial compositions, dripped off and dried to the air. The experiment was executed in ninefold. The coffee beans were stored for 4 days under the conditions as described in Example 1 and were judged visually on mould development.

In the case of `C[C@@H]1C/C=C/C=C/C=C/C=C/[C@H](O[C@@H]2O[C@H](C)[C@@H](O)[C@H](N)[C@@H]2O)C[C@@H]2O[C@](O)(C[C@@H](O)C[C@H]3O[C@@H]3/C=C/C(=O)O1)C[C@H](O)[C@H]2C(=O)O` [Natamycin, natamycin], the “Moulded strawberries of the total of 9” value [1] is listed as 6, the solubility in water [2] is listed as 30 to 50 µg/mL and the “Moulded orange wounds (total amount of wounds is 9)” value [3] is listed as 9. For the same molecule, the “MIC (Minimal Inhibitory Concentration)” value [4] was “less than 10 mg/l” and the “Moulded coffee beans of the total of 9” value [5] was 9.
